# Experimental data reported in patent US10335048B2, “High-resolution metabolic neuroimaging” (Oregon Health & Science University, priority 2013, dated 2019).
# Columns and labels:
# [1] = system: human prostate tumor; conditions: cited from earlier work
# [2] = human, in vivo
# Description: A 7 T [Tesla] whole-body MRI instrument (Siemens, Erlangen Germany), with quadrature transmission and 24-channel phased-array receive head RF coils, was used. Dynamic measurements employed a single-slice inversion recovery (IR) turboflash technique (Haase A. Snapshot FLASH MRI. Applications to T1, T2, and chemical-shift imaging. Magn. Reson. Med. 1990; 13: 77-89), sampling magnetization eight post-inversion times [TIs]: the inversion pulse was non-selective. […] Gadoteridol [ProHance; Bracco Diagnostics, Inc.] was injected into an antecubital vein catheter at 2.5 mL/s using a power injector [Medrad] to deliver a dose of 28 μmol/kg (typically ^˜5 mL), followed by a 15 mL saline flush at the same rate. […] Parametric R1 maps were calculated on a voxel basis by fitting the signal magnitude at each TI with a full Bloch simulation incorporating all RF pulses and delays. […]
# Dynamic measurements were obtained using a single-slice inversion recovery (IR) turboflash technique that sampled magnetization at eight time points post inversion. […] Parametric R1 maps were calculated on a voxel basis by fitting the magnitude signal intensity at each inversion time to a full Bloch simulation that incorporated all RF pulses and delays and modeled the recovery from inversion as a two-parameter single exponential using a gradient expansion algorithm. […]
# [3] = human, in vivo, iv; cited from earlier work
# [4] = system: Na+/K+-ATPase; conditions: within 15 minutes of direct application to the striatum; cited from earlier work
compound,measurement,setting,value
CC(=O)[13C](=O)O [[1-^13C]pyruvate],[1-13C]pyruvate to [1-13C]lactate conversion rate constant,[1],0.045 s⁻¹
"CC(O)CN1CCN(CC(=O)[O-])CCN(CC(=O)[O-])CCN(CC(=O)[O-])CC1.[Gd+3] (stereo not shown) [GdHPDO3A, gadoteridol]",maximum K^trans in the lesion center,[2],above 2×10^−3 min^−1
ferumoxytol [Fe-tol],plasma t1/2,[3],14 h
C[C@@H]1O[C@@H](O[C@H]2C[C@@H](O)[C@]3(CO)[C@H]4[C@H](O)C[C@]5(C)[C@@H](C6=CC(=O)OC6)CC[C@]5(O)[C@@H]4CC[C@]3(O)C2)[C@H](O)[C@H](O)[C@H]1O [ouabain],ADC drop,[4],40%
